# Test system: Primary human T-cells
# Assay: Primary Human T-Cell Proliferation Assay Stimulated with IL-2 (CellTiter-Glo)
# Assay type: cell-based
# Settings: Homo sapiens, T-cell, primary human T-cell proliferation stimulated with IL-2; read-out: IC50, Example 42
# Summary of the method: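 Peripheral blood T-cells pre-activated with anti-CD3/anti-CD28 and IL-2 were washed free of IL-2, then cultured with compound plus IL-2 for 72 hours at 37° C, duplicate wells. Viability read as ATP by CellTiter-Glo luminescence; IC50 reported.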
row,SMILES,IC50 [nM]
1,"N#CCOc1ccc(Nc2nc(Nc3ccc(S(N)(=O)=O)cc3)ncc2F)cc1-c1ccn(CC#N)n1 [Compound I-52, N2-(4-Aminosulfonylphenyl)-N4-[4-cyanomethoxy-3-(1-cyanomethylpyrazol-3-yl)phenyl]-5-fluoro-2,4-pyrimidinediamine]",5300
2,"Cc1cc(COc2ccc(Nc3nc(Nc4cccc(S(=O)(=O)NCc5oc(=O)oc5C)c4)ncc3F)cc2)no1 [Compound I-247, N2-{3-[(N-5-Methyl-1,3-dioxolene-2-one-4-yl)methylene]aminosulfonylphenyl}-5-fluoro-N4-[4-(5-methylisoxazol-3-yl)methyleneoxyphenyl]-2,4-pyrimidinediamine]",119
3,"N#CCCc1ccc(Nc2nc(Nc3cccc(S(N)(=O)=O)c3)ncc2F)cc1Cl [III-22, N2-(3-Aminosulfonylphenyl)-N4-[3-chloro-4-(2-cyanoethyl)phenyl]-5-fluoro-2,4-pyrimidinediamine]",76.1
4,"N#CCCc1ccc(Nc2nc(Nc3cccc(S(N)(=O)=O)c3)ncc2F)cc1F [III-18, N2-(3-Aminosulfonylphenyl)-N4-[4-(2-cyanoethyl)-3-fluorophenyl]-5-fluoro-2,4-pyrimidinediamine]",136
5,"Cc1ccc(Nc2ncc(F)c(Nc3ccc(OCC#N)c(CO)c3)n2)cc1S(N)(=O)=O [Compound I-51, N2-(3-Aminosulfonyl-4-methylphenyl)-N4-(4-cyanomethoxy-3-hydroxymethylphenyl)-5-fluoro-2,4-pyrimidinediamine]",2120
6,"Cc1cc(Nc2nc(Nc3cccc(S(N)(=O)=O)c3)ncc2F)ccc1CCC#N [III-20, N2-(3-Aminosulfonylphenyl)-N4-[4-(2-cyanoethyl)-3-methylphenyl]-5-fluoro-2,4-pyrimidinediamine]",763

# Same assay, conditions: primary human T-cells stimulated with IL-2, proliferation; read-out: IC50, Example 42
row,SMILES,IC50 [nM]
1,"CNS(=O)(=O)c1cc(Nc2ncc(F)c(Nc3cccc(-c4cnco4)c3)n2)ccc1C [IV-4, 5-Fluoro-N2-[3-(N-methylaminosulfony)-4-methylphenyl]-N4-[3-(1,3-oxazol-5-yl)phenyl]-2,4-pyrimidinediamine]",303
2,"Cc1ccc(Nc2ncc(F)c(Nc3ccc(CN4CCS(=O)(=O)CC4)cc3)n2)cc1S(N)(=O)=O [III-111, N2-(3-Aminosulfonyl-4-methylphenyl)-5-fluoro-N4-{4-[(1,1-dioxothiomorpholin-4-yl-)methyl]phenyl}-2,4-pyrimidinediamine]",926
3,"Cc1noc(CCc2ccc(Nc3nc(Nc4cccc(S(N)(=O)=O)c4)ncc3F)cc2)n1 [III-106, N2-(3-Aminosulfonylphenyl)-5-fluoro-N4-[4-(3-methyl-1,2,4-oxadiazol-5-yl)ethylenephenyl]-2,4-pyrimidinediamine]",75.1
